Data: patent US7253211B2, “(R)-chiral halogenated substituted fused heterocyclic amino compounds useful for inhibiting cholesterol ester transfer protein activity” (Pfizer Inc., priority 1999, dated 2007)

How the values were obtained:
human CETP (hCETP) = biological target: T1, human CETP (hCETP) (Homo sapiens, UniProt P11597); assay: Assay of CETP Inhibition In Vivo: CETP-mediated transfer in hCETP mice; details: single oral dose 60 mpk
T1 construct: expressed in transfected cells; host or cells: transgenic C57Bl/6 mice homozygous for the hCETP gene
T1 sequence (P11597 18-493): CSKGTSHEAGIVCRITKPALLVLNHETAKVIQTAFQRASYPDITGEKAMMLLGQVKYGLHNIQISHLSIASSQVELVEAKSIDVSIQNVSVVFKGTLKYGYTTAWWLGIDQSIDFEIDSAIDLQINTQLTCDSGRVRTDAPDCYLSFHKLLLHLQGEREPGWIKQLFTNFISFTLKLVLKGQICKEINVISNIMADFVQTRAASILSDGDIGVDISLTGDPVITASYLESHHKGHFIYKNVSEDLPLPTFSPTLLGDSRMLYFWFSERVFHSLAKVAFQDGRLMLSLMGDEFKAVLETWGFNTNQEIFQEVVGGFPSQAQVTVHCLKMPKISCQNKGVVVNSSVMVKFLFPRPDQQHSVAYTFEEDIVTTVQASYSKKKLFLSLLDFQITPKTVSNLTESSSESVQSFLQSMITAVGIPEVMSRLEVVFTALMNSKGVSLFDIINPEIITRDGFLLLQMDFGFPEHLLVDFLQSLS
From the text: C57B1/6 mice that were homozygous for the hCETP gene were maintained on a high fat chow diet, such as TD 88051, as described by Nishina et al. (J Lipid Res., 31, 859-869 (1990)) for at least two weeks prior to the study. Mice received an oral gavage dose of test compound as a suspension in 0.1% methyl cellulose in water or an intravenous bolus injection of test compound in 10% ethanol and 90% polyethylene glycol. Control animals received the vehicle solution without test compound by oral gavage or by an intravenous bolus injection. At the start of the experiment all animals received 0.05 mL of a solution containing [^3H]CE-HDL into the tail vein. [^3H]CE-HDL is a preparation of human HDL containing tritium-labeled cholesteryl ester, and was prepared according to the method of Glenn et al. (Meth. Enzymol., 263, 339-351 (1996)). After 30 minutes, the animals were exsanguinated and blood collected in standard microtainer tubes containing ethylenediamine tetraacetic acid. Blood samples were mixed well and kept on ice until the completion of the experiment. […] The plasma was separated and analyzed by gel filtration chromatography and the relative proportion of [^3H]CE in the VLDL, LDL and HDL regions was determined.
(§1) The percentage [^3H]CE transferred from HDL to LDL and VLDL (% transfer) was calculated based on the total radioactivity in equivalent plasma samples before precipitation.

CETP = assay: Assay of CETP Inhibition In Vivo: CETP-mediated transfer in hamster; set-up: species or system golden Syrian hamsters; details: single oral dose 10 mpk
Protocol: Assay of CETP Inhibition In Vivo.
Male golden Syrian hamsters were maintained on a diet of chow containing 0.24% cholesterol for at least two weeks prior to the study. For animals receiving intravenous dosing immediately before the experiment, animals were anesthetized with pentobarbital. Anesthesia was maintained throughout the experiment. In-dwelling catheters were inserted into the jugular vein and carotid artery. At the start of the experiment all animals received 0.2 mL of a solution containing [^3H]CE-HDL into the jugular vein. […] After centrifugation, the resulting supernatant (25 μL) containing the HDL was analyzed for radioactivity using a liquid scintillation counter.
as §1
Alternatively, conscious, non-anesthetized animals received an oral gavage dose of test compound as a suspension in 0.1% methyl cellulose in water. At a time determined for each compound at which plasma levels of the test substance reached their peak (Cmax) after oral dosing, the animals were anesthetized with pentobarbital and then dosed with 0.2 mL of a solution containing [^3H]CE-HDL into the jugular vein as described above. […]

plasma HDL [1] = assay: Assay of Plasma HDL Elevation In Vivo: rabbits
Protocol: Alternatively, rabbits were maintained on a normal chow diet. […] Plasma concentrations of drug were detected throughout the duration of the pump infusion in treated animals and averaged 1.2 μg/mL. Periodically, plasma samples were taken and analyzed for triglycerides, total cholesterol, and HDL.

plasma HDL [2] = assay: Assay of Plasma HDL Elevation In Vivo: cynomologous monkeys; details: oral gavage 10 mpk q.d. up to 11 days, corn oil based vehicle
Protocol: Alternatively, cynomologous monkeys were maintained on a normal chow diet. […] Plasma levels of drug were detected throughout the experiment in treated animals at ranges of 0.1-1.5 μg/mL. Periodically, plasma samples were taken and analyzed for total cholesterol and HDL.

plasma HDL [3] = assay: Assay of Plasma HDL Elevation In Vivo: lipoprotein profile in hCETP mice; set-up: species or system C57b1 mouse expressing human CETP; details: oral dose 30 mpk qd, 5 days
Protocol: Alternatively, a strain of C57b1 mouse was made to transgenicaly express human CETP. […] The hCETP mice were made hypercholesterolemic by feeding cholesterol and fat supplemented chow for a minimum of two weeks, as described above. Test compounds were administered orally in selected aqueous or oil based vehicles for up to 1 week. Serum was obtained and analyzed by size exclusion chromatography for the relative abundance of VLDL, LDL and HDL.

plasma HDL [4] = assay: Assay of Plasma HDL Elevation In Vivo: lipoprotein profile in hamster; set-up: species or system Syrian Golden hamsters; details: oral dose 30 mpk qd, 5 days
Protocol: Assay of Plasma HDL Elevation In Vivo.
Syrian Golden hamsters were made hypercholesterolemic by feeding cholesterol supplemented chow for a minimum of two weeks, as described above. Test compounds were administered orally in selected aqueous or oil based vehicles for up to 1 week. Serum was obtained and analyzed by precipitation or size exclusion chromatography for the relative abundance of VLDL, LDL and HDL.

[5] = Alzet pump 30 mg/day/animal, after fourteen days

inhibition at 60 mg/kg (human CETP (hCETP)): 40%
Plasma concentrations of drug (average) (plasma HDL [1]; Alzet pump 30 mg/day/animal up to 14 days, ethanol:propylene glycol vehicle): 1200 ng/mL
Plasma levels of drug (plasma HDL [2]): 100 to 1500 ng/mL
Compound: CCc1cc(Oc2cccc(N(Cc3cccc(OC(F)(F)C(F)F)c3)C[C@@H](O)C(F)(F)F)c2)ccc1Cl [Example 8, (2R)-3-[[3-(4-chloro-3-ethylphenoxy)phenyl][[3-(1,1,2,2-tetrafluoro-ethoxy)phenyl]methyl]amino]-1,1,1-trifluoro-2-propanol]
% Inhibition of Transfer (CETP): 35%
decrease in HDL compared to pre-dose levels (plasma HDL [1]; [5]): 12%
decrease in total cholesterol compared to pre-dose levels (plasma HDL [1]; [5]): 19%
increase in triglycerides compared to pre-dose levels (plasma HDL [1]; [5]): 17%
% Change in Lipoprotein Profile HDL (plasma HDL [3]): 12%
% Change in Lipoprotein Profile LDL (plasma HDL [3]): 20%
% Change in Lipoprotein Profile HDL (plasma HDL [4]): 12%
% Change in Lipoprotein Profile LDL (plasma HDL [4]): −12%
% Change in Lipoprotein Profile VLDL (plasma HDL [4]): −22%
